Experimental findings from patent US20240308998A1, “PYRROLOPYRIDONE DERIVATIVES USEFUL IN THE TREATMENT OF CANCER” (Tay Therapeutics Limited, priority 2021, published 2024) are described below.

Where only a bound is given, the exact number is not on record here.

Data set [1] deals with T1, BRD4 BD1 (Homo sapiens, UniProt O60885).
T1 construct: HEK293 cells were transfected using NanoLuc-BRD4-BD1 or NanoLuc-BRD4-BD2 fusion vectors; host or cells: HEK293
Put plainly: NanoBRET bromodomain assay, BRD4 BD1. The data set is classed as cell-based. As to conditions: HEK293 cells transfected with NanoLuc-BRD4-BD1. Here is the method:
(§1) HEK293 cells were transfected using NanoLuc-BRD4-BD1 or NanoLuc-BRD4-BD2 fusion vectors and incubated at 37° C. in an atmosphere of 5% CO2 for 20-24 hours. The transfected cells were then dispensed into 96-well plates using 90 μl cell suspension per well containing 2×10^5 cells/ml in Opti-MEM and 1x final concentration of tracer. 90 μl per well of cell suspension without tracer was also dispensed into at least 3 wells as “No tracer control samples” for background correction. Serially diluted test compounds were prepared at 1000× concentration in DMSO and further diluted to 10× concentration in Opti-MEM. 10 μl per well of the serially diluted 10× test compound was added to the 96-well plates containing cells with 1x tracer. Plates were then incubated at 37° C.+5% C02 incubator for 2 hours. Immediately prior to BRET measurements, a 3x solution consisting of 1:166 dilution of Nano-Glo® Substrate plus a 1:500 dilution of Extracellular NanoLuc Inhibitor in Opti-MEM was prepared and 50 μl per well was added to the cells. Donor emission (450 nm) and acceptor emission (610 nm) were measured using PHERAstar (BMG LabTech). For data analysis, the raw BRET ratio was generated and converted to milliBRET units with background correction using the formula: [(Acceptorsample/Donorsample)−(Acceptorno tracer control/Donorno tracer control)]×1000. The mBU data was plotted as a function of compound concentration and IC50s for BRET assay were determined by nonlinear regression analysis of concentration response curves using the GraphPad Prism software.

Data set [2] addresses T2, BRD4 BD2 (Homo sapiens, UniProt O60885).
T2 construct: HEK293 cells were transfected using NanoLuc-BRD4-BD1 or NanoLuc-BRD4-BD2 fusion vectors; host or cells: HEK293
Put plainly: NanoBRET bromodomain assay, BRD4 BD2. Type of data set: cell-based. As to conditions: for Fold selectivity BRD4 BD1/BD2: IC50 BD1/IC50 BD2; for IC50: NanoBRET, HEK293 cells transfected with NanoLuc-BRD4-BD2. On the procedure:
as §1
Fold Selectivity Calculated (IC50 BD1/IC50 BD2).

The nature of data set [3]: Intrinsic clearance in rat liver microsomes. The data set is classed as in vitro ADME. To be noted: pH 7.4, NADPH, read-out: Rat Microsomal Stability T½. Here is the method: A 50 mM stock solution (in DMSO) was prepared for the compound. From the stock solution, a working solution of 0.5 mM was prepared by diluting the compound in DMSO. This concentration of working solution was prepared considering a final concentration of 1 uM with 0.1% DMSO. The compound (1 uL of working solution) was spiked in PBS with pH 7.4 (22 uL) at a concentration of 1 uM. Subsequently, 110 uL of 10 mM NADPH was added (as a co-factor). The sample was incubated at 37° C. for 15 min. Following this, pre-warmed rat liver microsomes (27.5 uL; final protein conc. 0.5 mg/mL) were added. The samples were then incubated at 37° C. Aliquots of samples were withdrawn at 0, 5, 15, 30, 45 and 60 min. The reaction was stopped by using chilled acetonitrile containing internal standard. The samples were centrifuged and the supernatants analysed by LC-MS/MS. The percent compound remaining at each time point was calculated with respect to that of the 0 min sample. The data were then analysed to calculate half-life. Note that control samples were run without NADPH and blank samples were prepared using DMSO without the test Compound.

For `Cc1cccc(C)c1Oc1cn(C)c(=O)cc1-c1cn(C)c(=O)c2[nH]c(-c3cnnn3C)cc12` [Example 33, 4-(5-(2,6-dimethylphenoxy)-1-methyl-2-oxo-1,2-dihydropyridin-4-yl)-6-methyl-2-(1-methyl-1H-1,2,3-triazol-5-yl)-1,6-dihydro-7H-pyrrolo[2,3-c] pyridin-7-one], the IC50 in data set [1] and in data set [2] was > 1000 nM in each case. The “Fold selectivity BRD4 BD1/BD2” value in data set [2] is “x (Fold >2 and ≤50)”. Besides, the half-life at 1 uM in data set [3] was > 1 h.

As to `Cc1cccc(C)c1Oc1cn(C)c(=O)cc1-c1cn(C)c(=O)c2[nH]c(-c3ccc(C(N)=O)cc3)cc12` [Example 29, 4-(4-(5-(2,6-dimethylphenoxy)-1-methyl-2-oxo-1,2-dihydropyridin-4-yl)-6-methyl-7-oxo-6,7-dihydro-1H-pyrrolo[2,3-c]pyridin-2-yl) benzamide], the half-inhibitory concentration (IC50) in data set [1] was > 1000 nM. For the same molecule, in data set [2], the “Fold selectivity BRD4 BD1/BD2” value was “xxx (Fold >200)” and the concentration for half-maximal inhibition (IC50) is ≤ 50 nM. The half-life at 1 uM in data set [3] is > 1 h.

Turning to `Cc1ccc(F)c(-c2cc3c(-c4cc(=O)n(C)cc4Oc4c(C)cccc4C)cn(C)c(=O)c3[nH]2)c1` [Example 16, 4-(5-(2,6-dimethylphenoxy)-1-methyl-2-oxo-1,2-dihydropyridin-4-yl)-2-(2-fluoro-5-methylphenyl)-6-methyl-1,6-dihydro-7H-pyrrolo[2,3-c] pyridin-7-one], the IC50 in data set [1] was > 1000 nM. Moreover, in data set [2], the “Fold selectivity BRD4 BD1/BD2” value is “xxx (Fold >200)” and the half-maximal inhibitory concentration (IC50) is ≤ 50 nM. The half-life at 1 uM in data set [3] is > 1 h.

On to `Cc1cccc(C)c1Oc1cn(C)c(=O)cc1-c1cn(C)c(=O)c2[nH]c(-c3ccn(C)c3)cc12` [Example 13, 4-(5-(2,6-dimethylphenoxy)-1-methyl-2-oxo-1,2-dihydropyridin-4-yl)-6-methyl-2-(1-methyl-1H-pyrrol-3-yl)-1,6-dihydro-7H-pyrrolo[2,3-c] pyridin-7-one], for which, in data set [1], the half-inhibitory concentration (IC50) is > 1000 nM. In addition, in data set [2], the “Fold selectivity BRD4 BD1/BD2” value is recorded as “xxx (Fold >200)” and the concentration for half-maximal inhibition (IC50) was ≤ 50 nM. In data set [3], the half-life at 1 uM was > 1 h.

`Cc1cccc(C)c1Oc1cn(C)c(=O)cc1-c1cn(C)c(=O)c2[nH]c(-c3cnn[nH]3)cc12` [Example 30, 4-(5-(2,6-dimethylphenoxy)-1-methyl-2-oxo-1,2-dihydropyridin-4-yl)-6-methyl-2-(1H-1,2,3-triazol-5-yl)-1,6-dihydro-7H-pyrrolo[2,3-c] pyridin-7-one]: the half-maximal inhibitory concentration (IC50) in data set [1] was > 1000 nM. Further, in data set [2], the “Fold selectivity BRD4 BD1/BD2” value was “xx (Fold >50 and ≤200)”; the IC50 was in the range of 50 to 200 nM. For the same molecule, the half-life at 1 uM in data set [3] is > 1 h.

On to `Cc1cccc(C)c1Oc1cn(C)c(=O)cc1-c1cn(C)c(=O)c2[nH]c(-c3cnn(C)c3C)cc12` [Example 36, 2-(1,5-dimethyl-1H-pyrazol-4-yl)-4-(5-(2,6-dimethylphenoxy)-1-methyl-2-oxo-1,2-dihydropyridin-4-yl)-6-methyl-1,6-dihydro-7H-pyrrolo[2,3-c] pyridin-7-one], for which the IC50 in data set [1] was > 1000 nM; in data set [2], ≤ 50 nM. For the same molecule, the “Fold selectivity BRD4 BD1/BD2” value in data set [2] is “xx (Fold >50 and ≤200)”. Besides, in data set [3], the half-life at 1 uM was > 1 h.

On to `Cc1cccc(C)c1Oc1cn(C)c(=O)cc1-c1cn(C)c(=O)c2[nH]c(-c3ccn[nH]3)cc12` [Example 32, 4-(5-(2,6-dimethylphenoxy)-1-methyl-2-oxo-1,2-dihydropyridin-4-yl)-6-methyl-2-(1H-pyrazol-5-yl)-1,6-dihydro-7H-pyrrolo [2,3-c] pyridin-7-one], for which the IC50 in data set [1] was > 1000 nM. In addition, in data set [2], the “Fold selectivity BRD4 BD1/BD2” value is “xx (Fold >50 and ≤200)”; the half-maximal inhibitory concentration (IC50) was 50 to 200 nM. The half-life at 1 uM in data set [3] is > 1 h.

`Cc1cccc(C)c1Oc1cn(C)c(=O)cc1-c1cn(C)c(=O)c2[nH]c(-c3cn(C(C)C)nc3C)cc12` [Example 6, 4-(5-(2,6-dimethylphenoxy)-1-methyl-2-oxo-1,2-dihydropyridin-4-yl)-2-(1-isopropyl-3-methyl-1H-pyrazol-4-yl)-6-methyl-1,6-dihydro-7H-pyrrolo[2,3-c]pyridin-7-one]: the IC50 in data set [1] is 500 to 1000 nM. In data set [2], the “Fold selectivity BRD4 BD1/BD2” value is recorded as “xxx (Fold >200)” and the half-maximal inhibitory concentration (IC50) is ≤ 50 nM. For the same molecule, the half-life at 1 uM in data set [3] is > 1 h.

Turning to `Cc1ncc(-c2cc3c(-c4cc(=O)n(C)cc4Oc4c(C)cccc4C)cn(C)c(=O)c3[nH]2)s1` [Example 31, 4-(5-(2,6-dimethylphenoxy)-1-methyl-2-oxo-1,2-dihydropyridin-4-yl)-6-methyl-2-(2-methylthiazol-5-yl)-1,6-dihydro-7H-pyrrolo[2,3-c] pyridin-7-one], the values for the IC50 in data set [1] and in data set [2] were 50 to 500 nM and ≤ 50 nM, respectively. Further, in data set [2], the “Fold selectivity BRD4 BD1/BD2” value is “xx (Fold >50 and ≤200)”. Besides, the half-life at 1 uM in data set [3] is > 1 h.

Take `Cc1cccc(C)c1Oc1cn(C)c(=O)cc1-c1cn(C)c(=O)c2[nH]c(-c3cncnc3)cc12` [Example 22, 4-(5-(2,6-dimethylphenoxy)-1-methyl-2-oxo-1,2-dihydropyridin-4-yl)-6-methyl-2-(pyrimidin-5-yl)-1,6-dihydro-7H-pyrrolo[2,3-c] pyridin-7-one]: in data set [1], the IC50 is > 1000 nM. In data set [2], the “Fold selectivity BRD4 BD1/BD2” value is “xx (Fold >50 and ≤200)”; the IC50 was in the range of 50 to 200 nM. Moreover, the half-life at 1 uM in data set [3] is > 1 h.

On to `Cc1ccccc1-c1cc2c(-c3cc(=O)n(C)cc3Oc3c(C)cccc3C)cn(C)c(=O)c2[nH]1` [Example 15, 4-(5-(2,6-dimethylphenoxy)-1-methyl-2-oxo-1,2-dihydropyridin-4-yl)-6-methyl-2-(o-tolyl)-1,6-dihydro-7H-pyrrolo[2,3-c] pyridin-7-one], for which, in data set [1], the 50% inhibitory concentration (IC50) was > 1000 nM. Further, in data set [2], the “Fold selectivity BRD4 BD1/BD2” value was “x (Fold >2 and ≤50)”; the IC50 fell in the range of 200 to 1000 nM. Moreover, in data set [3], the half-life at 1 uM turned out to be 0.383 h.

`Cc1ccc(C)c(-c2cc3c(-c4cc(=O)n(C)cc4Oc4c(C)cccc4C)cn(C)c(=O)c3[nH]2)c1` [Example 19, 4-(5-(2,6-dimethylphenoxy)-1-methyl-2-oxo-1,2-dihydropyridin-4-yl)-2-(2,5-dimethylphenyl)-6-methyl-1,6-dihydro-7H-pyrrolo[2,3-c] pyridin-7-one]: the figures for the IC50 in data set [1] and in data set [2] were > 1000 nM and 200 to 1000 nM, respectively. For the same molecule, the “Fold selectivity BRD4 BD1/BD2” value in data set [2] is “x (Fold >2 and ≤50)”. Moreover, the half-life at 1 uM in data set [3] is > 1 h.

For `Cc1ccc(F)cc1-c1cc2c(-c3cc(=O)n(C)cc3Oc3c(C)cccc3C)cn(C)c(=O)c2[nH]1` [Example 18, 4-(5-(2,6-dimethylphenoxy)-1-methyl-2-oxo-1,2-dihydropyridin-4-yl)-2-(5-fluoro-2-methylphenyl)-6-methyl-1,6-dihydro-7H-pyrrolo[2,3-c] pyridin-7-one], in data set [1], the IC50 is > 1000 nM. Further, in data set [2], the “Fold selectivity BRD4 BD1/BD2” value is “xx (Fold >50 and ≤200)”; the IC50 was in the range of 50 to 200 nM. Moreover, in data set [3], the half-life at 1 uM was > 1 h.

Turning to `Cc1ccc(C(F)(F)F)cc1-c1cc2c(-c3cc(=O)n(C)cc3Oc3c(C)cccc3C)cn(C)c(=O)c2[nH]1` [Example 21, 4-(5-(2,6-dimethylphenoxy)-1-methyl-2-oxo-1,2-dihydropyridin-4-yl)-6-methyl-2-(2-methyl-5-(trifluoromethyl)phenyl)-1,6-dihydro-7H-pyrrolo[2,3-c] pyridin-7-one], the IC50 in data set [1] and in data set [2] was > 1000 nM in each case. Also, the “Fold selectivity BRD4 BD1/BD2” value in data set [2] was “— (Fold ≥0 and ≤2)”. Besides, in data set [3], the half-life at 1 uM was > 1 h.
